In paper PMC10451032 (ACS Central Science, 2023):

What was measured:
[1] = system: triple mutant L50F/E166A/L167F; conditions: cited from earlier work
[2] = system: triple mutant L50F/E166A/L167F; conditions: cited from earlier work; remark: listed apart in the source
[3] = system: rNsp5^WT recombinant SARS-CoV-2; assay: microbe, parasite or virus in culture; type: cell-based; conditions: Severe acute respiratory syndrome coronavirus 2

CC(C)(C)[C@H](NC(=O)C(F)(F)F)C(=O)N1C[C@H]2[C@@H]([C@H]1C(=O)N[C@H](C#N)C[C@@H]1CCNC1=O)C2(C)C [nirmatrelvir]
EC50 increase in the antiviral assay [1]: 51 fold | IC50 increase in the enzymatic assay [2]: 72 fold | EC50 [3]: 25.5 nM
